The assay concerns the target MAPK14 (UniProt Q16539). Kind of assay: p38 alpha Inhibition. The following applies: for inhibition: concentration not given here.

MAPK14, sequence (Q16539 whole entry, looked up): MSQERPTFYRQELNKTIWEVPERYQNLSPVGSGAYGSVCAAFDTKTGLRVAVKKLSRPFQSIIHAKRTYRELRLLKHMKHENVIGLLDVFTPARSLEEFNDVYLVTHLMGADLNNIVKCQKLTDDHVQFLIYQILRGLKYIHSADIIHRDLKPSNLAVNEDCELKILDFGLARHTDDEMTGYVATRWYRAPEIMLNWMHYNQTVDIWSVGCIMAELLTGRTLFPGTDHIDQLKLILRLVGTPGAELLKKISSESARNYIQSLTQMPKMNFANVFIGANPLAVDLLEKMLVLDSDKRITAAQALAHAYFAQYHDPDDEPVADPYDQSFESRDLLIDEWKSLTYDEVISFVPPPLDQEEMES

The compound `Clc1cccc(-c2nc(NCc3ccccc3)c3ccccc3n2)c1` returned an inhibition of 37%. Still for that read-out and setting: with `CCC(C)c1ccc(Nc2nc(-c3ccccc3)nc3ccccc23)cc1` (stereo not drawn) the figure was 10%.

In turn, `COc1ccccc1Nc1nc(-c2ccccc2)nc2ccccc12` returned an inhibition of 37%. The compound `c1ccc(-c2nc(NCc3ccncc3)c3ccccc3n2)cc1` displayed a half-maximal inhibitory concentration (IC50) of 1.2 µM and an inhibition of 64%. The like results for `Fc1ccc(-c2nc(Nc3ccncc3)c3ccccc3n2)cc1` were, in that order, 0.439 µM and 92%. Consider `COc1ccc(N(c2ccncc2)c2nc(-c3ccccc3)nc3ccccc23)cc1`, for which the inhibition stood at 47%. With `COc1cccc(Nc2nc(-c3ccccc3)nc3ccccc23)c1`, the IC50 amounted to 0.578 µM and the inhibition amounted to 95%. `c1ccc(-c2nc(Nc3ccncc3)c3ccccc3n2)cc1` displayed an IC50 of 0.457 µM. `COc1ccc(Nc2nc(-c3ccccc3)nc3ccccc23)cc1` yielded an inhibition of 16%. The same measure, in the same setting: with `COc1cc2nc(-c3ccccc3Cl)nc(Nc3ccncc3)c2cc1OC` the figure was 97%. The compound `Clc1ccccc1-c1nc(Nc2ccncc2)c2ccccc2n1` gave a concentration for half-maximal inhibition (IC50) of 0.17 µM and an inhibition of 100%.

`Oc1ccccc1Nc1nc(-c2ccccc2)nc2ccccc12` returned an inhibition of 28%. The same measure, in the same setting: with `COc1ccc(-c2nc(Nc3ccncc3)c3ccccc3n2)cc1` the figure was 5%; with `OCCc1ccc(Nc2nc(-c3ccccc3)nc3ccccc23)cc1`, 34%.

In turn, `c1ccc(-c2nc(NCc3cccnc3)c3ccccc3n2)cc1` registered an inhibition of 54%. On the same count and under the same terms, with `CN(C)c1ccc(CNc2nc(-c3ccccc3)nc3ccccc23)cc1` the figure was 25%.

Take `COc1cccc(CNc2ccc3nc(-c4ccccc4F)nc(Nc4ccncc4)c3c2)c1`: the inhibition worked out at 96%.

As to `c1ccc(Nc2nc(-c3ccccc3)nc3ccccc23)cc1`, the inhibition is 45%. On to `O=[N+]([O-])c1ccc2nc(-c3ccccc3F)nc(Nc3ccncc3)c2c1`, for which the inhibition stood at 91%. As to `Fc1ccccc1-c1nc(Nc2ccncc2)c2ccccc2n1`, the IC50 was determined as 0.114 µM and the inhibition stood at 99%. The like results for `Brc1ccccc1-c1nc(Nc2ccncc2)c2ccccc2n1` were, in that order, 0.285 µM and 99%.

For `c1ccc(-c2nc(Nc3cccc4[nH]ccc34)c3ccccc3n2)cc1`, the inhibition is 72%. On the same count and under the same terms, the value for `c1ccc(-c2nc(NCCc3ccccn3)c3ccccc3n2)cc1` was 16%. Same read-out and setting: the value for `CC(C)N(c1ccncc1)c1nc(-c2ccccc2)nc2ccccc12` was 69%.

For the compound `Fc1cccc(F)c1-c1nc(Nc2ccncc2)c2ccccc2n1`, the inhibition is 97%.

The compound `Fc1ccc(F)c(CNc2nc(-c3ccccc3)nc3ccccc23)c1` returned an inhibition of 63%. On to `c1ccc(-c2nc(Nc3ccc4[nH]ccc4c3)c3ccccc3n2)cc1`, for which the inhibition was determined as 70%. On to `Nc1ccc2nc(-c3ccccc3F)nc(Nc3ccncc3)c2c1`, for which the concentration for half-maximal inhibition (IC50) came to 0.168 µM. `Oc1ccc(Nc2nc(-c3ccccc3)nc3ccccc23)cc1`: the inhibition stood at 63%.

On to `c1ccc(-c2nc(Nc3cccnc3)c3ccccc3n2)cc1`, for which the inhibition stood at 45%. Same read-out and setting: with `Fc1ccccc1-c1nc(Nc2ccncc2)c2cccnc2n1` the figure was 97%. Still for that read-out and setting: with `N#Cc1cccc(Nc2nc(-c3ccccc3)nc3ccccc23)c1` the figure was 13%. Same read-out and setting: the value for `c1ccc(-c2nc(Nc3ncccn3)c3ccccc3n2)cc1` was 3%; that for `Clc1cccc(Cl)c1-c1nc(Nc2ccncc2)c2ccccc2n1` was 85%. Consider `Fc1cccc(-c2nc(Nc3ccncc3)c3ccccc3n2)c1`, for which the inhibition came to 68%. Same read-out and setting: with `Clc1ccc(-c2nc(NCc3ccncc3)c3ccccc3n2)cc1` the figure was 51%. The same measure, in the same setting: with `Nc1ccc2c(Nc3ccncc3)nc(-c3ccccc3F)nc2c1` the figure was 94%; with `Oc1cccc(Nc2nc(-c3ccccc3)nc3ccccc23)c1`, 19%. Same read-out and setting: with `COc1ccc(CNc2ccc3nc(-c4ccccc4F)nc(Nc4ccncc4)c3c2)cc1` the figure was 96%. The compound `c1ccc(-c2nc(Nc3ccncn3)c3ccccc3n2)cc1` showed an inhibition of 97%.

On to `Cc1ccccc1-c1nc(Nc2ccncc2)c2ccccc2n1`, for which the 50% inhibitory concentration (IC50) came out at 0.345 µM and the inhibition was 99%.
